In patent US20220288057A1, “CONJOINT THERAPY FOR TREATING SEIZURE DISORDERS” (XENON PHARMACEUTICALS INC., priority 2021, published 2022):
Values joined by “and” are separate entries in the source; they are usually repeats but may differ in a detail not shown here. Equal entries are not always repeated.

Experiment: Plasma and brain concentrations after MES testing (UHPLC-ESI-MS/MS);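 further: brain and plasma were sampled from mice right after the efficacy test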
Conditions: for concentration at 2 h / concentration at 0.5 h: in vivo
[1] = Compound A 0.25 mg/kg PO 2 h alone (phenytoin study), 0.25 mg/kg
[2] = Compound A 0.75 mg/kg PO 2 h alone (phenytoin study), 0.75 mg/kg
[3] = Compound A 1 mg/kg PO 2 h alone (levetiracetam study), 1 mg/kg
[4] = Compound A 1 mg/kg PO 2 h alone (phenytoin study), 1 mg/kg
[5] = Compound A 1 mg/kg PO 2 h alone (valproic acid study), 1 mg/kg
[6] = Compound A 2.5 mg/kg PO 2 h alone (phenytoin study), 2.5 mg/kg
[7] = analyte Compound A, 0.25 mg/kg + 2 mg/kg Phenytoin
[8] = analyte Compound A, 0.75 mg/kg + 2 mg/kg Phenytoin
[9] = analyte Compound A, 1 mg/kg + 2 mg/kg Phenytoin
[10] = analyte Compound A, 1 mg/kg PO + 100 mg/kg Valproic Acid IP
[11] = analyte Compound A, 2.5 mg/kg + 2 mg/kg Phenytoin

Which concentration at 2 h (CF-1, mouse, po, 8 mg/kg, Concentration Brain, Compound A 8 mg/kg PO single dose, tissue collection 2 hr) does the source give for Cc1cc(N2CCc3cc(F)ccc3C2)cc(C)c1NC(=O)CC(C)(C)C [Compound A, N-[4-(6-fluoro-3,4-dihydro-1H-isoquinolin-2-yl)-2,6-dimethylphenyl]-3,3-dimethylbutanamide] here?
Its concentration at 2 h is 560 nM.

What about the concentration at 0.5 h (CF-1, mouse, po, 8 mg/kg, Concentration Brain, Compound A 8 mg/kg PO, 0.5 hr) of the same molecule?
The concentration at 0.5 h was 402 ng/g.

And the concentration at 2 h (CF-1, mouse, po, 8 mg/kg, Concentration Brain, Compound A 8 mg/kg PO, 2 hr)?
Its concentration at 2 h is 208 ng/g.

What about the concentration at 0.5 h (CF-1, mouse, po, 8 mg/kg, Concentration Plasma, Compound A 8 mg/kg PO single dose, tissue collection 0.5 hr) of the same molecule?
Its concentration at 0.5 h is 710 nM.

And the concentration at 2 h (CF-1, mouse, po, 8 mg/kg, Concentration Plasma, Compound A 8 mg/kg PO single dose, tissue collection 2 hr)?
Its concentration at 2 h is 430 nM.

What about the concentration at 0.5 h (CF-1, mouse, po, 8 mg/kg, Concentration Plasma, Compound A 8 mg/kg PO, 0.5 hr) of the same molecule?
Its concentration at 0.5 h is 261 ng/mL.

What about the concentration at 2 h (CF-1, mouse, po, 8 mg/kg, Concentration Plasma, Compound A 8 mg/kg PO, 2 hr) of the same molecule?
Its concentration at 2 h is 158 ng/mL.

And the “Brain concentration, Mean” value [1]?
Its value is 40 nM.

What about the “Plasma concentration, Mean” value [1] of the same molecule?
The value was 0.01 μM and 4.3 ng/mL.

What about the “Brain concentration, Mean” value [2] of the same molecule?
Its value is 120 nM.

What about the “Plasma concentration, Mean” value [2] of the same molecule?
Its value is 0.03 μM and 11.7 ng/mL.

What about the “Brain concentration, Mean” value [3] of the same molecule?
The value was 60 nM.

What about the “Plasma concentration, Mean” value [3] of the same molecule?
The value was 0.03 μM and 11.1 ng/mL.

And the “Brain concentration, Mean” value [4]?
The value was 90 nM.

What about the “Plasma concentration, Mean” value [4] of the same molecule?
The value was 0.05 μM and 17.0 ng/mL.

And the “Brain concentration, Mean” value [5]?
Its value is 160 nM.

What about the “Plasma concentration, Mean” value [5] of the same molecule?
Its value is 0.066 μM and 24 ng/mL.

And the “Concentration Plasma” value (Compound A 1 mg/kg PO single dose, tissue collection 2 hr, 1 mg/kg)?
The value was 100 nM.

And the “Brain concentration, Mean” value [6]?
The value was 390 nM.

And the “Plasma concentration, Mean” value [6]?
Its value is 45.1 ng/mL and 0.12 μM.

And the “Brain concentration, Mean” value [7]?
Its value is 50 nM.

What about the “Plasma concentration, Mean” value [7] of the same molecule?
Its value is 0.02 μM and 5.6 ng/mL.

What about the “Brain concentration, Mean” value [8] of the same molecule?
The value was 150 nM.

What about the “Plasma concentration, Mean” value [8] of the same molecule?
Its value is 0.04 μM and 16.0 ng/mL.

And the “Brain concentration, Mean” value [9]?
Its value is 100 nM.

What about the “Plasma concentration, Mean” value [9] of the same molecule?
The value was 0.05 μM and 19.0 ng/mL.

And the “Brain concentration, Mean” value [10]?
Its value is 97 nM.

What about the “Plasma concentration, Mean” value [10] of the same molecule?
Its value is 0.042 μM and 15 ng/mL.

And the “Brain concentration, Mean” value [11]?
The value was 510 nM.

And the “Plasma concentration, Mean” value [11]?
The value was 58.4 ng/mL and 0.16 μM.

And the concentration at 2 h (mouse, 1 mg/kg, plasma concentration, Compound A 1 mg/kg, mean±SEM, n=15)?
Its concentration at 2 h is 66 ± 14 nM.

What about the concentration at 2 h (mouse, Brain concentration, Mean, analyte Compound A, 0.25 mg/kg + 2 mg/kg Phenytoin) of the same molecule?
The concentration at 2 h was 50 nM and 18.4 ng/g.

What about the concentration at 2 h (mouse, Brain concentration, Mean, analyte Compound A, 0.75 mg/kg + 2 mg/kg Phenytoin) of the same molecule?
The concentration at 2 h was 150 nM and 56.7 ng/g.

What about the concentration at 2 h (mouse, Brain concentration, Mean, analyte Compound A, 1 mg/kg + 2 mg/kg Phenytoin) of the same molecule?
The concentration at 2 h was 100 nM and 37 ng/g.

And the concentration at 2 h (mouse, Brain concentration, Mean, analyte Compound A, 1 mg/kg PO + 100 mg/kg Valproic Acid IP)?
The concentration at 2 h was 97 nM and 36 ng/g.

What about the concentration at 2 h (mouse, Brain concentration, Mean, analyte Compound A, 2.5 mg/kg + 2 mg/kg Phenytoin) of the same molecule?
Its concentration at 2 h is 510 nM and 186 ng/g.

What about the concentration at 2 h (mouse, Plasma concentration, Mean, analyte Compound A, 0.25 mg/kg + 2 mg/kg Phenytoin) of the same molecule?
Its concentration at 2 h is 20 nM and 5.6 ng/mL.

And the concentration at 2 h (mouse, Plasma concentration, Mean, analyte Compound A, 0.75 mg/kg + 2 mg/kg Phenytoin)?
The concentration at 2 h was 40 nM and 16 ng/mL.

And the concentration at 2 h (mouse, Plasma concentration, Mean, analyte Compound A, 1 mg/kg + 2 mg/kg Phenytoin)?
The concentration at 2 h was 50 nM and 19 ng/mL.

What about the concentration at 2 h (mouse, Plasma concentration, Mean, analyte Compound A, 1 mg/kg PO + 100 mg/kg Valproic Acid IP) of the same molecule?
The concentration at 2 h was 42 nM and 15 ng/mL.

And the concentration at 2 h (mouse, Plasma concentration, Mean, analyte Compound A, 2.5 mg/kg + 2 mg/kg Phenytoin)?
The concentration at 2 h was 160 nM and 58.4 ng/mL.

And the concentration at 2 h (mouse, mean total brain concentration, analyte Compound A, 1 mg/kg PO + Valproic Acid 30 mg/kg IP)?
Its concentration at 2 h is 75 nM and 28 ng/g.

What about the concentration at 2 h (mouse, mean total brain concentration, analyte Compound A, 1 mg/kg PO + Valproic Acid 56 mg/kg IP) of the same molecule?
The concentration at 2 h was 117 nM and 43 ng/g.

What about the concentration at 2 h (mouse, mean total plasma concentration, analyte Compound A, 1 mg/kg PO + Valproic Acid 30 mg/kg IP) of the same molecule?
Its concentration at 2 h is 38 nM and 14 ng/mL.

And the concentration at 2 h (mouse, mean total plasma concentration, analyte Compound A, 1 mg/kg PO + Valproic Acid 56 mg/kg IP)?
Its concentration at 2 h is 18 ng/mL and 50 nM.

And the concentration at 2 h (mouse, po, 0.25 mg/kg, Brain concentration, Mean, Compound A 0.25 mg/kg PO 2 h alone (phenytoin study))?
The concentration at 2 h was 40 nM and 14.8 ng/g.

What about the concentration at 2 h (mouse, po, 0.25 mg/kg, Plasma concentration, Mean, Compound A 0.25 mg/kg PO 2 h alone (phenytoin study)) of the same molecule?
Its concentration at 2 h is 10 nM and 4.3 ng/mL.

What about the concentration at 2 h (mouse, po, 0.75 mg/kg, Brain concentration, Mean, Compound A 0.75 mg/kg PO 2 h alone (phenytoin study)) of the same molecule?
Its concentration at 2 h is 120 nM and 43.8 ng/g.

What about the concentration at 2 h (mouse, po, 0.75 mg/kg, Plasma concentration, Mean, Compound A 0.75 mg/kg PO 2 h alone (phenytoin study)) of the same molecule?
Its concentration at 2 h is 11.7 ng/mL and 30 nM.

What about the concentration at 2 h (mouse, po, 1 mg/kg, Brain concentration, Mean, Compound A 1 mg/kg PO 2 h alone (levetiracetam study)) of the same molecule?
The concentration at 2 h was 60 nM and 20.9 ng/g.

What about the concentration at 2 h (mouse, po, 1 mg/kg, Brain concentration, Mean, Compound A 1 mg/kg PO 2 h alone (phenytoin study)) of the same molecule?
Its concentration at 2 h is 100 nM and 35 ng/g.

What about the concentration at 2 h (mouse, po, 1 mg/kg, Brain concentration, Mean, Compound A 1 mg/kg PO 2 h alone (valproic acid study)) of the same molecule?
The concentration at 2 h was 160 nM and 59 ng/g.

What about the concentration at 2 h (mouse, po, 1 mg/kg, Plasma concentration, Mean, Compound A 1 mg/kg PO 2 h alone (levetiracetam study)) of the same molecule?
The concentration at 2 h was 30 nM and 11.1 ng/mL.

And the concentration at 2 h (mouse, po, 1 mg/kg, Plasma concentration, Mean, Compound A 1 mg/kg PO 2 h alone (phenytoin study))?
Its concentration at 2 h is 50 nM and 17 ng/mL.

What about the concentration at 2 h (mouse, po, 1 mg/kg, Plasma concentration, Mean, Compound A 1 mg/kg PO 2 h alone (valproic acid study)) of the same molecule?
Its concentration at 2 h is 66 nM and 24 ng/mL.

And the concentration at 2 h (mouse, po, 2.5 mg/kg, Brain concentration, Mean, Compound A 2.5 mg/kg PO 2 h alone (phenytoin study))?
Its concentration at 2 h is 390 nM and 144 ng/g.

What about the concentration at 2 h (mouse, po, 2.5 mg/kg, Plasma concentration, Mean, Compound A 2.5 mg/kg PO 2 h alone (phenytoin study)) of the same molecule?
Its concentration at 2 h is 120 nM and 45.1 ng/mL.
